The test system of assay [1] is Propionibacterium acnes 55. The experiment in a line: MIC, agar dilution, anaerobic bacteria (CLSI M11-A9). The assay is classed as cell-based. The conditions noted are these: Cutibacterium acnes; P. acnes 55, anaerobic clinical isolate. In general terms: In agar dilution the substance is mixed into plates at graded concentrations.
For assay [2], the system named is Streptococcus agalactiae 1Cp. The experiment in a line: MIC, broth microdilution (CLSI). The conditions noted are these: S. agalactiae 1Cp. Type of assay: cell-based. The procedure: (§1) Minimum inhibitory concentration (MIC) values for facultative anaerobic bacteria were determined using the broth microdilution method outlined in the CLSI guidelines. Initially, all compounds were dissolved in dimethyl sulfoxide (DMSO) to achieve a concentration of 10 mg/mL. Subsequently, they were diluted with the Mueller–Hinton nutrient broth (MHB) supplemented with 5% defibrinated horse blood (for Streptococcus spp.) to a concentration of 64 μg/mL. Following 2-fold serial dilutions of the substances, bacterial cultures in the log growth phase were added to 96-well plates at a concentration of 2.5–5 × 10^5 CFU/mL, and the plates were incubated at 37 °C for 16–20 h.
(§2) Minimum inhibitory concentration (MIC) was defined as the lowest concentration of a chemical compound that inhibits the visible growth of the bacterial strain. At least three replicates of MIC measurements were performed.
Background: Broth dilution looks for growth in wells or tubes with falling amounts of substance.

Assay [3] has as its system Staphylococcus aureus ATCC 29213. The experiment in a line: MIC, broth microdilution (CLSI). The assay is classed as cell-based. The note with it: ATCC29213, S. aureus ATCC 29213. The procedure: as §1, §2
In assay [4] the test system is Escherichia coli ATCC 25922. The experiment in a line: MIC, broth microdilution (CLSI). The note with it: ATCC25922, E. coli ATCC 25922. Type of assay: cell-based. The procedure: as §1, §2
For assay [5], the system named is Streptococcus pneumoniae ATCC 49619. The experiment in a line: MIC, broth microdilution (CLSI). The assay is classed as cell-based. The procedure: as §1, §2
Assay [6] concerns Clostridium sporogenes ATCC 19404. The experiment in a line: MIC, agar dilution, anaerobic bacteria (CLSI M11-A9). The assay is classed as cell-based. The note with it: ATCC19404, C. sporogenes ATCC 19404, anaerobic. The procedure: The antimicrobial activity against anaerobic bacteria was evaluated using the agar dilution method in accordance with the CLSI document M11-A9 [58]. Twofold serial dilutions of compounds, at 10 times the desired concentration, were prepared in water and diluted (1:10) with the Brucella Agar medium containing 5% defibrinated horse blood, 5 mg/L hemin, and 1 mg/L vitamin K. The resulting plates were inoculated with approximately 10^5 CFU per spot using a replicator and incubated anaerobically at 36 °C for 48 h.
as §2

In assay [7] the test system is ribosome stalling on ermCL mRNA. In words: Toe-printing (primer extension inhibition) analysis on ermCL mRNA. The note with it: 50 μM (chloramphenicol 30 μM). Type of assay: biochemical. The procedure: The toe-printing (primer extension inhibition) analysis of azithromycin derivatives was carried out essentially as previously described with some minor modifications, as indicated below. The DNA template ErmCL was generated by PCR using two overlapping primers, ErmCL-fwd (5′-[…]-3′) and ErmCL-rev (5′-[…]-3′). Before the addition of the DNA template to reaction mixtures at the in vitro translation step, tubes were pre-incubated at RT for 5 min. Moreover, phenol-chloroform extraction of reverse transcription products was replaced with DNA purification using the QIAquick® PCR Purification Kit (Qiagen, Hilden, Germany) according to the manufacturer’s protocol.
Figure 4 Toe-printing (or primer extension inhibition) analysis of azithromycin derivatives on ermCL mRNA. Ribosome stalling is detected via reverse transcription in a cell-free bacterial transcription–translation coupled system. The toe-printing bands are marked with colored arrowheads, and the A-site codons (except for the start codon, P-site codon is indicated) occupied by the stalled ribosomes are indicated in the mRNA sequence with the corresponding colors. The stop codon is marked with an asterisk. All compounds but chloramphenicol (CLM) were tested at 50 μM. Chloramphenicol (CLM) was tested at 30 μM. DMSO was used as a negative control at 0.25% final concentration. Thiostrepton (THS) was used to indicate the translation start site.

Assay [8] deals with Streptococcus pneumoniae ATCC 6305. The experiment in a line: MIC, broth microdilution (CLSI). The assay is classed as cell-based. The note with it: ATCC6305, S. pneumoniae ATCC 6305, Table S3. The procedure: To evaluate the antimicrobial activity of hybrid molecules, clinical and reference strains obtained from the Laboratory of Medical Microbiology of the State Scientific Center of Antibiotics (Moscow, Russia) were used. The activity of azithromycin derivatives conjugated with chloramphenicol was tested on the following reference strains: Streptococcus pneumoniae ATCC 49619, Staphylococcus aureus ATCC 29213, and Escherichia coli ATCC 25922. Additionally, azithromycin derivatives conjugated with metronidazole were tested on the Streptococcus agalactiae 1Cp strain, Streptococcus pneumoniae ATCC 6305 strain (see Table S3, Supplementary Materials), on the anaerobic Gram-positive Clostridium sporogenes ATCC 19404 strain, and Propionibacterium acnes 55 clinical isolate.
Minimum inhibitory concentration (MIC) values for facultative anaerobic bacteria were determined using the broth microdilution method outlined in the CLSI guidelines. Initially, all compounds were dissolved in dimethyl sulfoxide (DMSO) to achieve a concentration of 10 mg/mL. Subsequently, they were diluted with the Mueller–Hinton nutrient broth (MHB) supplemented with 5% defibrinated horse blood (for Streptococcus spp.) to a concentration of 64 μg/mL. […]

The test system of assay [9] is E. coli ΔtolC. In words: MIC, broth microdilution, E. coli ΔtolC panel. Type of assay: cell-based. The note with it: Escherichia coli.
Text: The E. coli JW5503 strain with a deletion of the tolC gene (referred to here as E. coli ΔtolC) was kindly provided by Prof. Hironori Niki, National Institute of Genetics, Japan. The E. coli BW25113 strain with a partial deletion of the lptD gene, codons 330 to 352 (referred to here as E. coli lptD^mut) was kindly provided by Prof. Alexander S. Mankin, University of Illinois, Chicago, IL, USA [44]. The E. coli ΔtolC strain was transformed with the pDualrep2 (Amp^R) plasmid, whereas the E. coli lptD^mut strain was transformed with the pDualrep2 (Kan^R) plasmid (not yet published). Both E. coli strains were grown at 37 °C in Luria–Bertani (LB) medium supplemented with either 100 μg/mL ampicillin or 50 μg/mL kanamycin.
MIC values for a panel of E. coli ΔtolC strains were determined via the broth microdilution assay as described here with minor modifications. Briefly, the overnight E. coli culture was diluted to an OD600 of 0.01 in the fresh LB medium supplied with 100 μg/mL ampicillin, if required. Then, the cells were additionally incubated for 1–1.5 h at 37 °C with shaking at 200 rpm (Shaker-Incubator ES-20/80, BioSan, Riga, Latvia). Meanwhile, 100 μL of the liquid growth medium was placed in each well of a 96-well sterile plate (200 μL was placed in column 1). Solutions of tested compounds were added in the first column of the plate at 2 times the final concentration of 200 μg/mL. Then, 2-fold serial dilutions were performed. Immediately before use, bacterial inoculum was diluted (1:100) in the growth medium, and 100 μL of it was transferred in each well except for the sterility control column. The plate was incubated overnight (16–20 h) at 37 °C with constant shaking at 200 rpm (Shaker-Incubator ES-20/80, BioSan, Riga Latvia). Cell growth was assessed by scanning the OD600 with a VICTOR X5 Multilabel Plate Reader (PerkinElmer, Waltham, MA, USA).
as §2

Molecules are shown by their SMILES. ≈ marks a conversion by molar mass, not a printed value. Where only a bound is given, the exact number is not on record here.

As for `CC[C@H]1OC(=O)[C@H](C)[C@@H](O[C@H]2C[C@@](C)(OC)[C@@H](O)[C@H](C)O2)[C@H](C)[C@@H](O[C@@H]2O[C@H](C)C[C@H](N(C)C)[C@H]2O)[C@](C)(O)C[C@@H](C)CN(C)[C@H](C)[C@@H](O)[C@]1(C)O` [AZT, azithromycin], the MIC (commonly the lowest concentration found to suppress growth) in assay [1] was less than 0.06 µg/mL; in assay [2] (Table 3) it was 0.015 µg/mL (≈ 0.02 µM); in [2] (Table S3, comparison with 2′-O-deacetyl metabolites) it was 0.03 µg/mL; in assay [3], 0.5 µg/mL (≈ 0.668 µM); in assay [4], 2 µg/mL (≈ 2.67 µM); in assay [5] (ATCC49619, S. pneumoniae ATCC 49619, Table S3, comparison with 2′-O-deacetyl metabolites) it was 0.03 µg/mL. Further, the MIC in assay [5] (ATCC49619, S. pneumoniae ATCC 49619, Tables 2 and 3) was 0.06 µg/mL (≈ 0.0801 µM); in [6], 4 µg/mL (≈ 5.34 µM); in [8] it was 0.03 µg/mL (≈ 0.0401 µM); in [9], 0.8 µg/mL (≈ 1.07 µM). The “Ribosome stalling pattern on ermCL mRNA” value in [7] is recorded as “induces ribosome stalling when GUA (Val) or AGC (Ser) codons enter the A-site of the ribosome”.
